Reference: patent publication US9850283B2, “Macrocyclic inhibitors of the PD-1/PD-L1 and CD80(B7-1)/PD-L1 protein/protein interactions” (BRISTOL-MYERS SQUIBB COMPANY, priority 2013, dated 2017)
pIC50: −log10 of the molar value. Where two headings read alike, the source gives them in different places. Positions of bridges follow the written chain, without caps; N, C: chain ends. Non-standard residues stand in square brackets, D forms with d. Residues, ends and D or L forms follow the SMILES beside them. Trp(5-OH) = N[C@@H](Cc1c[nH]c2ccc(O)cc12)C(=O)O; Phe(3,4-F2) = N[C@@H](Cc1ccc(F)c(F)c1)C(=O)O; Phe(4-CH2NH2) = NCc1ccc(C[C@H](N)C(=O)O)cc1; Phe(4-Me) = Cc1ccc(C[C@H](N)C(=O)O)cc1; cisHyp = O=C(O)[C@@H]1C[C@H](O)CN1; Ala(cPr) = N[C@@H](CC1CC1)C(=O)O; Hyp = O=C(O)[C@@H]1C[C@@H](O)CN1; NMeF = CN[C@@H](Cc1ccccc1)C(=O)O; NMeNle = CCCC[C@H](NC)C(=O)O; NMeA = CN[C@@H](C)C(=O)O; Orn = NCCC[C@H](N)C(=O)O; Dab = NCC[C@H](N)C(=O)O; Dap = NC[C@H](N)C(=O)O; Sar = CNCC(=O)O

How the values were obtained:
Human PD-L1/PD-1 = molecular target: T1, Human PD-L1/PD-1 (Homo sapiens, UniProt Q9NZQ7); experiment: HTRF PD-1-Ig/PD-L1-His binding assay (human PD-L1)
T1 construct: made in house; host or cells: HEK293T
T1 sequence (Q9NZQ7 with tags, fused parts or gaps): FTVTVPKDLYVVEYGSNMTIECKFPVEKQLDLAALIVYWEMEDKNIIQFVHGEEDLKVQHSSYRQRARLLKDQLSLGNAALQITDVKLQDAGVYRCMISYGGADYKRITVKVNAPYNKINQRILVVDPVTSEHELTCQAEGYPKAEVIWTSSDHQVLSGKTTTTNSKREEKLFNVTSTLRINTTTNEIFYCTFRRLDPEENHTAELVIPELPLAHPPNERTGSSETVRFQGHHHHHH
Procedure, shortened: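 The time-resolved fluorescence signal comes from Eu-cryptate anti-Ig (1 nM) and APC anti-His (20 nM) antibodies bound to a PD-1-Ig/PD-L1-His complex. Both partners lack transmembrane regions.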

[1] = molecular target: T2, LK35.2-hPD-L1 cells / PE-labeled PD-1-Ig (Homo sapiens, UniProt Q9NZQ7); experiment: LK35.2-hPD-L1 cell binding high-content screening assay; format: cell-based
T2 construct: expressed in transfected cells; host or cells: LK35.2 mouse B cell line
T2 sequence (Q9NZQ7 19-290): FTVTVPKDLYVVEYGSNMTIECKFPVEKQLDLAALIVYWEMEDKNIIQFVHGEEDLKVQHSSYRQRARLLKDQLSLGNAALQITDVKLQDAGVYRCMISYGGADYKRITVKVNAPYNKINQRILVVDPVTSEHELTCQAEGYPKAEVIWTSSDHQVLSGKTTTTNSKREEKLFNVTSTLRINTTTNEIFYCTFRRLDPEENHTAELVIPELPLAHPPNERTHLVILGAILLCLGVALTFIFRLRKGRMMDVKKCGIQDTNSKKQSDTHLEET
Procedure, shortened: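 Readout: high-content imaging of PE-PD-1-Ig bound to LK35.2-hPD-L1 cells. Cells plated overnight (RPMI/10% FCS); compound + 1 nM PE-PD-1-Ig, 1 h, 37 °C; 3× dPBS wash before imaging.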

[2] = cluster symbol, read-out: HTRF IC50 cluster
[3] = cell binding assay, cell line not given, cluster symbol, read-out: CBA IC50 cluster
[4] = cluster symbol, cell line of CBA not given (LK35.2-hPD-L1 or 293T-hPD-L1), read-out: CBA IC50 cluster

| SMILES | pIC50 (Human PD-L1/PD-1; [2]) | pIC50 [1, 3] | also measured |
| --- | --- | --- | --- |
| CCCC[C@H]1C(=O)N(C)[C@@H](CCCC)C(=O)N[C@@H](CC2CC2)C(=O)N[C@H](C(=O)NCC(N)=O)CSCC(=O)N[C@@H](Cc2ccc(O)cc2)C(=O)N(C)[C@@H](C)C(=O)N[C@@H](CC(N)=O)C(=O)N2CCC[C@H]2C(=O)N[C@@H](Cc2c[nH]cn2)C(=O)N[C@@H](CCC(N)=O)C(=O)N2C[C@H](O)C[C@H]2C(=O)N[C@@H](Cc2c[nH]c3ccccc23)C(=O)N[C@@H](CO)C(=O)N[C@@H](Cc2c[nH]c3ccccc23)C(=O)N1C [Example 5081] ({CH2CO}-Y[NMeA]NPHQ[Hyp]WSW[NMeNle][NMeNle][Ala(cPr)]CG-NH2; thioether N-14) | 8.17 to 9.41 | 7.14 to 8.32 |  |
| CCCC[C@H]1C(=O)N(C)[C@@H](CCCC)C(=O)N[C@@H](CCC(=O)O)C(=O)N[C@H](C(=O)NCC(N)=O)CSCC(=O)N[C@@H](Cc2ccc(O)cc2)C(=O)N(C)[C@@H](C)C(=O)N[C@@H](CCN)C(=O)N2CCC[C@H]2C(=O)N[C@@H](CO)C(=O)N[C@@H](CCC(=O)O)C(=O)N2C[C@H](O)C[C@H]2C(=O)N[C@@H](Cc2c[nH]c3ccccc23)C(=O)N[C@@H](CCCCN)C(=O)N[C@@H](Cc2c[nH]c3ccccc23)C(=O)N1C [Example 5085] ({CH2CO}-Y[NMeA][Dab]PSE[Hyp]WKW[NMeNle][NMeNle]ECG-NH2; thioether N-14) | 8.17 to 9.41 | 8.33 to 9.80 |  |
| CCCC[C@H]1C(=O)N(C)CC(=O)N[C@@H](CC(=O)O)C(=O)N[C@@H](C(C)C)C(=O)N(C)[C@@H](Cc2ccccc2)C(=O)N[C@@H](Cc2ccc(O)cc2)C(=O)N(C)CC(=O)N[C@@H](Cc2c[nH]c3ccc(O)cc23)C(=O)N[C@@H](Cc2ccc(O)cc2)C(=O)N[C@@H](CC(C)C)C(=O)N[C@H](C(=O)NCC(N)=O)CSCC(=O)N[C@@H](Cc2ccccc2)C(=O)N(C)[C@@H](Cc2ccccc2)C(=O)N1C [Example 3147] ({CH2CO}-F[NMeF][NMeNle][Sar]DV[NMeF]Y[Sar][Trp(5-OH)]YLCG-NH2; thioether N-13) |  |  | pIC50 (Human PD-L1/PD-1; read-out: HTRF IC50 value): 6.12; pIC50 ([1]; cell line of CBA not given (LK35.2-hPD-L1 or 293T-hPD-L1), read-out: CBA IC50 value): 5.76 |
| CCCC[C@H]1C(=O)N(C)CC(=O)N[C@@H](CC(=O)O)C(=O)N[C@@H](C(C)C)C(=O)N(C)[C@@H](Cc2ccccc2)C(=O)N[C@@H](Cc2ccc(O)cc2)C(=O)N(C)CC(=O)N[C@@H](Cc2c[nH]c3ccccc23)C(=O)N[C@@H](Cc2ccc(O)cc2)C(=O)N[C@@H](CC(C)C)C(=O)N[C@H](C(=O)NCC(N)=O)CSCC(=O)N[C@@H](Cc2ccc(F)c(F)c2)C(=O)N(C)[C@@H](Cc2ccccc2)C(=O)N1C [Example 3130] ({CH2CO}-[Phe(3,4-F2)][NMeF][NMeNle][Sar]DV[NMeF]Y[Sar]WYLCG-NH2; thioether N-13) | 7.52 to 8.17 |  | pIC50 [1, 4]: 8.33 to 9.80 |
| CCCC[C@H]1C(=O)N(C)CC(=O)N[C@@H](CC(=O)O)C(=O)N[C@@H](C(C)C)C(=O)N(C)[C@@H](Cc2ccccc2)C(=O)N[C@@H](Cc2ccc(O)cc2)C(=O)N(C)CC(=O)N[C@@H](Cc2ccc(CN)cc2)C(=O)N[C@@H](Cc2ccc(O)cc2)C(=O)N[C@@H](CC(C)C)C(=O)N[C@H](C(=O)NCC(N)=O)CSCC(=O)N[C@@H](Cc2ccccc2)C(=O)N(C)[C@@H](Cc2ccccc2)C(=O)N1C [Example 3513] ({CH2CO}-F[NMeF][NMeNle][Sar]DV[NMeF]Y[Sar][Phe(4-CH2NH2)]YLCG-NH2; thioether N-13) | < 7.52 | < 7.13 |  |
| CCCC[C@H]1C(=O)N(C)[C@@H](CCCC)C(=O)N[C@@H](CC(C)C)C(=O)N[C@H](C(=O)NCC(N)=O)CSCC(=O)N[C@@H](Cc2ccc(O)cc2)C(=O)N(C)[C@@H](C)C(=O)N[C@@H](CC(N)=O)C(=O)N2CCC[C@H]2C(=O)N[C@@H](Cc2c[nH]cn2)C(=O)N[C@@H](CCC(N)=O)C(=O)N2C[C@H](O)C[C@H]2C(=O)N[C@@H](Cc2c[nH]c3ccccc23)C(=O)NCC(=O)N[C@@H](Cc2c[nH]c3ccccc23)C(=O)N1C [Example 5109] ({CH2CO}-Y[NMeA]NPHQ[Hyp]WGW[NMeNle][NMeNle]LCG-NH2; thioether N-14) | 8.17 to 9.41 | 8.33 to 9.80 |  |
| CCCC[C@H]1C(=O)N(C)[C@@H](CCCC)C(=O)N[C@@H](CCCN)C(=O)N[C@H](C(=O)NCC(N)=O)CSCC(=O)N[C@@H](Cc2ccc(O)cc2)C(=O)N(C)[C@@H](C)C(=O)N[C@@H](CC(N)=O)C(=O)N2CCC[C@H]2C(=O)N[C@@H](CN)C(=O)N[C@@H](CC(C)C)C(=O)N2C[C@@H](O)C[C@H]2C(=O)N[C@@H](Cc2c[nH]c3ccccc23)C(=O)N[C@@H](CO)C(=O)N[C@@H](Cc2c[nH]c3ccccc23)C(=O)N1C [Example 1145] ({CH2CO}-Y[NMeA]NP[Dap]L[cisHyp]WSW[NMeNle][NMeNle][Orn]CG-NH2; thioether N-14) | 7.52 to 8.17 |  | pIC50 [1, 4]: 8.33 to 9.80 |
| CCCC[C@H]1C(=O)N(C)CC(=O)N[C@@H](CC(=O)O)C(=O)N[C@@H](C(C)C)C(=O)N[C@@H](Cc2ccc(C)cc2)C(=O)N[C@@H](Cc2ccc(O)cc2)C(=O)N(C)CC(=O)N[C@@H](Cc2c[nH]c3ccccc23)C(=O)N[C@@H](Cc2ccc(O)cc2)C(=O)N[C@@H](CC(C)C)C(=O)N[C@H](C(=O)NCC(N)=O)CSCC(=O)N[C@@H](Cc2ccccc2)C(=O)N(C)[C@@H](Cc2ccccc2)C(=O)N1C [Example 3135] ({CH2CO}-F[NMeF][NMeNle][Sar]DV[Phe(4-Me)]Y[Sar]WYLCG-NH2; thioether N-13) | < 7.52 |  | pIC50 [1, 4]: < 7.13 |
| CCCC[C@H]1C(=O)N(C)CC(=O)N[C@@H](CC(=O)O)C(=O)N[C@@H](C(C)C)C(=O)N(C)[C@@H](Cc2ccccc2)C(=O)N[C@@H](CCCNC(=N)N)C(=O)N(C)CC(=O)N[C@@H](Cc2c[nH]c3ccccc23)C(=O)N[C@@H](Cc2ccc(O)cc2)C(=O)N[C@@H](CCC(=O)O)C(=O)N[C@H](C(=O)NCC(N)=O)CSCC(=O)N[C@@H](Cc2ccccc2)C(=O)N(C)[C@@H](Cc2ccccc2)C(=O)N1C [Example 3542] (HELM PEPTIDE1{[O=C(C[*:3])[*:2]].F.[meF].[CCCC[C@@H](C(=O)[*:2])N(C)[*:1]].[Sar].D.V.[meF].R.[Sar].W.Y.E.C.G.[am]}$PEPTIDE1,PEPTIDE1,1:R3-14:R3$$$V2.0) | 7.52 to 8.17 | 7.14 to 8.32 |  |
| CCCC[C@H]1C(=O)N(C)[C@@H](CCCC)C(=O)N[C@@H](CCCNC(=N)N)C(=O)N[C@H](C(=O)NCC(=O)O)CSCC(=O)N[C@@H](Cc2ccc(O)cc2)C(=O)N(C)[C@@H](C)C(=O)N[C@@H](CC(N)=O)C(=O)N2CCC[C@H]2C(=O)N[C@@H](Cc2cnc[nH]2)C(=O)N[C@@H](CC(C)C)C(=O)N2C[C@H](O)C[C@H]2C(=O)N[C@@H](Cc2c[nH]c3ccccc23)C(=O)N[C@@H](CO)C(=O)N[C@@H](Cc2c[nH]c3ccccc23)C(=O)N1C [Example 5068] | 7.52 to 8.17 | 8.33 to 9.80 |  |
| CCCC[C@H]1C(=O)N2CCC[C@@H]2C(=O)N[C@@H](CCCNC(=N)N)C(=O)N[C@H](C(=O)NCC(N)=O)CSCC(=O)N[C@@H](Cc2ccccc2)C(=O)N(C)[C@@H](C)C(=O)N[C@@H](CC(N)=O)C(=O)N2CCC[C@H]2C(=O)N[C@@H](Cc2cnc[nH]2)C(=O)N[C@@H](CC(C)C)C(=O)N(C)CC(=O)N[C@@H](Cc2c[nH]c3ccccc23)C(=O)N[C@@H](CO)C(=O)N[C@@H](Cc2c[nH]c3ccccc23)C(=O)N1C [Example 5009] (HELM PEPTIDE1{[O=C(C[*:3])[*:2]].F.[meA].N.P.H.L.[Sar].W.S.W.[CCCC[C@@H](C(=O)[*:2])N(C)[*:1]].[dP].R.C.G.[am]}$PEPTIDE1,PEPTIDE1,1:R3-15:R3$$$V2.0) |  | < 7.13 | pIC50 (Human PD-L1/PD-1; value given instead of cluster, read-out: HTRF IC50 value): 7.52 |
